Data on three sequences can be found in patent publication US8258260B2, “Tumor-associated peptides binding promiscuously to human leukocyte antigen (HLA) class II molecules” (Immatics Biotechnologies GmbH, priority 2005, dated 2012).

This assay deals with CD4-positive T-cells. As to the kind of experiment: In vitro T-cell priming with peptide-pulsed autologous DCs, intracellular IFNγ staining of CD4-positive T-cells. Type of assay: cell-based, human. The conditions noted are these: for CD4+ T-cell IFNγ response to peptide: donors 1, 2 and 3, positive = more than two-fold over negative controls. The procedure:
Maturation of DCs: DCs were prepared using blood from healthy donors. Briefly, PBMCs were isolated using standard gradient centrifugation (Lymphocyte Separation Medium, PAA Laboratories GmbH, Pasching, Austria) and plated at a density of 7×10^6 cells/ml in X-Vivo 15 medium. After 2 hours at 37° C., non-adherent cells were removed and adherent monocytes cultured for 6 days in X-Vivo medium with 100 ng/ml GM-CSF and 40 ng/ml IL-4 (AL-ImmunoTools, Friesoythe, Germany). On day 7, immature DCs were activated with 10 ng/ml TNF-α (R&D Systems, Wiesbaden, Germany) and 20 μg/ml poly(IC) (Sigma Aldrich, Steinheim, Germany) for 3 days.
Generation of antigen-specific CD4-positive T-cells: 10^6 PBMCs per well were stimulated with 2×10^5 peptide pulsed (5 μg/ml) autologous DCs. Cells were incubated in 96-well plates (7 wells per donor and per peptide) with T-cell medium: supplemented RPMI 1640 in the presence of 10 ng/ml IL-12 (Promocell, Heidelberg, Germany). After 3 to 4 days of co-incubation at 37° C., fresh medium with 80 U/ml IL-2 (Proleukin, Chiron Corporation, Emeryville, Calif., USA) and 5 ng/ml IL-7 (Promocell) was added. Restimulations were done with autologous PBMCs plus peptide every 6 to 8 days.
Intracellular IFNγ staining: After 3 and 4 rounds of stimulation, PBMCs were thawed, washed twice in X-Vivo 15 medium, resuspended at 10^7 cells/ml in T-cell medium and cultured overnight. On the next day, PBMCs, pulsed with 5 μg/ml peptide, were incubated with effector cells in a ratio of 1:1 for 6 h. Golgi-Stop (Becton Dickinson, Heidelberg, Germany) was added for the final 4 h of incubation.
Cells were analyzed using a Cytofix/Cytoperm Plus kit (Becton Dickinson) and CD4-FITC-(Immunotools), IFNγ-PE- and CD8-PerCP clone SK1-antibodies (Becton Dickinson). For negative controls, cells of seven wells were pooled and incubated either with irrelevant peptide or without peptide, respectively. Stimulation with PMA/Ionomycin was used for positive control. Cells were analyzed on a three-color FACSCalibur (Becton Dickinson).
To generate antigen-specific CD4-positive T-cells and to test the peptides for promiscuous binding, PBMCs of 4 healthy donors with different HLA-DR alleles (FIG. 2), one of them carrying DRB1*1101, were stimulated using peptide-pulsed autologous DCs. […] As a read-out system for the generation of antigen-specific CD4-positive T-cells, IFNγ levels were assessed by flow cytometry. T-cells were analyzed after the third and fourth weekly stimulation by intracellular IFNγ staining plus CD4-FITC and CD8-PerCP staining to determine the percentage of IFNγ-producing cells in specific T-cell subpopulations. […]

Take “HSKIIIIKKGHAK (listed as Homo sapiens) [SEQ ID NO: 48]”: the “maximal frequency of IFNγ producing CD4+ T-cells” value is reported as 0.05% (donor 2) and 0.07% (donor 3).
With “NPPSMVAAGSVVAAV (listed as Homo sapiens) [SEQ ID NO: 49]”, the “CD4+ T-cell IFNγ response to peptide” value is reported as “showed IFNγ responses”.
Still for that read-out and setting: the value for SQDDIKGIQKLYGKRS [SEQ ID NO: 1] was “showed CD4^+ T-cells reactive”.
